Reference: article PMC7190177, “Click chemistry-facilitated comprehensive identification of proteins adducted by antimicrobial 5-nitroimidazoles for discovery of alternative drug targets against giardiasis” (PLoS Neglected Tropical Diseases, 2020)

Experiments:
[1] = target: T1, Ornithine carbamoyltransferase (OCT) (Giardia duodenalis, UniProt E2RTT6); test: click biotinylation, streptavidin pull-down from treated trophozoites, LC-MS/MS and immunoblot; type: cell-based; conditions: covalent; prodrug reduced in the cells; 100 uM, 2 h
T1 construct: gene GL50803_0010311; native protein in trophozoites, 327 aa
T1 sequence (E2RTT6 1-327): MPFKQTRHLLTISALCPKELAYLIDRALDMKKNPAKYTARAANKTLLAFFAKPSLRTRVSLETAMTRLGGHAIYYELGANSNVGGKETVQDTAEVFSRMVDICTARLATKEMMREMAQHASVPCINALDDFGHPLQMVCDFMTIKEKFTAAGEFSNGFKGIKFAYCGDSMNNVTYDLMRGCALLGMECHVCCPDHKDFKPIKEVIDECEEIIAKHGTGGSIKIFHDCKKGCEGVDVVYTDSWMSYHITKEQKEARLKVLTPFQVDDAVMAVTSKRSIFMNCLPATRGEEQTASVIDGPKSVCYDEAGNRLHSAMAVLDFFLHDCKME

Arginine deiminase (ADI) = target: T2, Arginine deiminase (ADI) (Giardia duodenalis, UniProt E2RU36); test: colorimetric citrulline-detection assay of recombinant His-tagged ADI; type: biochemical; conditions: 500 uM Mz-alkyne + 1 mM dithionite (reductive activation of prodrug), 2 h; 1 mM arginine, Hepes pH 7.0, 37 C; covalent
T2 construct: gene GL50803_00112103; full-length 580 aa, C-terminal His tag (pETite C-His), E. coli BL21-CodonPlus(DE3)-RIL
T2 sequence (E2RU36 entry or part of it): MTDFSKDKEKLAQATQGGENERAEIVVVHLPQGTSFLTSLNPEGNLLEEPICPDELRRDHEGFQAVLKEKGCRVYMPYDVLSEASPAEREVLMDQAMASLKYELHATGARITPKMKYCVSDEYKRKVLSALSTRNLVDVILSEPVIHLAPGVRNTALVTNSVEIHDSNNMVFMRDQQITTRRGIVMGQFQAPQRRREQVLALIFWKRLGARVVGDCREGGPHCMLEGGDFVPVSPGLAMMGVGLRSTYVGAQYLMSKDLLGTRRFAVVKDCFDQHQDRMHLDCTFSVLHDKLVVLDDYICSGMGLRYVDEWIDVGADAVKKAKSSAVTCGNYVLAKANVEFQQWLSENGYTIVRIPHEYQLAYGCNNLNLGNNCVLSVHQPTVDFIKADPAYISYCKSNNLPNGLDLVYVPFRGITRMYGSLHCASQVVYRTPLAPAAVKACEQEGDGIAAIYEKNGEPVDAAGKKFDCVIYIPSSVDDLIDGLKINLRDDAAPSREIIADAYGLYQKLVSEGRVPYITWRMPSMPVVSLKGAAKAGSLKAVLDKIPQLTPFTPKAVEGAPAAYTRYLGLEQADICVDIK

Enolase = target: T3, Enolase (Giardia duodenalis, UniProt E2RTS6); test: click biotinylation, streptavidin pull-down from treated trophozoites, LC-MS/MS and immunoblot; type: cell-based; conditions: covalent; prodrug reduced in the cells; 100 uM, 2 h
T3 construct: gene GL50803_0011118; native protein in trophozoites, 445 aa
T3 sequence (E2RTS6 1-445): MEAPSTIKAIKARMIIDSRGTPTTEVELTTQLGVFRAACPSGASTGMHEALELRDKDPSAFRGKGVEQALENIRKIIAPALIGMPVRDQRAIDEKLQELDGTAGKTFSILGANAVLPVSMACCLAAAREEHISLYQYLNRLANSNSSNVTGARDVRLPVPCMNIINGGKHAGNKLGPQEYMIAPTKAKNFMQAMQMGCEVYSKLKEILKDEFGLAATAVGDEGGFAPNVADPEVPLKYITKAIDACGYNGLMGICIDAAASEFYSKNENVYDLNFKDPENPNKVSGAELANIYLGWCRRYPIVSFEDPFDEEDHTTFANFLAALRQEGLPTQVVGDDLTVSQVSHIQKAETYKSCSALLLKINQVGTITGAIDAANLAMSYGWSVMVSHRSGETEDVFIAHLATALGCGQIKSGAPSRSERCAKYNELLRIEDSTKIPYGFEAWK

C#CCCn1c([N+](=O)[O-])cnc1C [Mz-alkyne, 1-(But-3-ynyl)-2-methyl-5-nitro-1H-imidazole]
adduct [1]: these proteins were labeled with biotin and thus adducted by Mz-alkyne
inhibition (Arginine deiminase (ADI)): Wild-type ADI was significantly inhibited by activated Mz-alkyne under cell-free conditions
adduct (Enolase): these proteins were labeled with biotin and thus adducted by Mz-alkyne
